ChEMBL document CHEMBL1127586, “Central cholinergic agents. 6. Synthesis and evaluation of 3-[1-(phenylmethyl)-4-piperidinyl]-1-(2,3,4,5-tetrahydro-1H-1-benzazepi n-8-yl)-1-propanones and their analogs as central selective acetylcholinesterase inhibitors” (J Med Chem, 1994)
Where “and” joins values, the source holds several entries; their conditions need not be identical. Equal values may be shown once.

How the values were obtained:
Acetylcholinesterase = biological target: T1, Acetylcholinesterase (Rattus norvegicus, UniProt P37136)
T1 sequence (P37136 whole entry): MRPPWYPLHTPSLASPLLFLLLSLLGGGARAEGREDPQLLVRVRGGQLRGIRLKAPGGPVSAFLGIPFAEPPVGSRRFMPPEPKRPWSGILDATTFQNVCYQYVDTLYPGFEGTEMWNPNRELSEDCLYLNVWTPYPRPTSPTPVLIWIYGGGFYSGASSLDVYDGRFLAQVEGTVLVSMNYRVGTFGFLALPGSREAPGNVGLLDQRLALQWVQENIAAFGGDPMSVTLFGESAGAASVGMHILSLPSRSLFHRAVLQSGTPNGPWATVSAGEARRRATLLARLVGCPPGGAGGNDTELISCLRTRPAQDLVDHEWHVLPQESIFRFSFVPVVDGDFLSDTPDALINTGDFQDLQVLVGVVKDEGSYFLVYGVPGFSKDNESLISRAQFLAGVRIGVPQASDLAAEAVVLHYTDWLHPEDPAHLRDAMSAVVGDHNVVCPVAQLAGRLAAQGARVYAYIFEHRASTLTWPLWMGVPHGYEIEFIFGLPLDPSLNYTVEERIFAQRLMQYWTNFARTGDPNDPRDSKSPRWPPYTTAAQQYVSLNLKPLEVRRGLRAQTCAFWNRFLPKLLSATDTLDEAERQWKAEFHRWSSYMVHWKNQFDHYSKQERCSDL
Description: Inhibition of acetylcholinesterase (AChE)

Rattus norvegicus [1] = species on record: Rattus norvegicus; settings: dose 10 mg/kg; route oral
Description: Number of circlings observed for 30 min at 10 mg/kg orally administered dose in rats

Rattus norvegicus [2] = test: Peripheral cholinergic effects in male wistar rats when administered orally at a dose of 3 mg/Kg.; format: functional, organism-based
Rattus norvegicus [3] = test: Effect of compound on peripheral cholinergic effects in male wistar rats when administered orally at a dose of 30 mg/Kg; fasciculation, salivation; format: functional, organism-based
Rattus norvegicus [4] = test: Effect of compound on peripheral cholinergic effects in male wistar rats when administered orally at a dose of 10 mg/Kg; salivation; format: functional, organism-based
Rattus norvegicus [5] = test: Number of circlings observed for 30 min at 3 mg/kg orally administered dose in rats; format: functional; settings: route oral
Rattus norvegicus [6] = test: Effect of compound on peripheral cholinergic effects in male wistar rats when administered orally at a dose of 30 mg/Kg; fasciculation, lacrimation, salivation; format: functional, organism-based
Rattus norvegicus [7] = test: Effect of compound on peripheral cholinergic effects in male wistar rats when administered orally at a dose of 3 mg/Kg; fasciculation; format: functional, organism-based
Rattus norvegicus [8] = test: Effect of compound on peripheral cholinergic effects in male wistar rats when administered orally at a dose of 1 mg/Kg; No significant change; format: functional, organism-based
Rattus norvegicus [9] = test: Effect of compound on peripheral cholinergic effects in male wistar rats when administered orally at a dose of 10 mg/Kg; fasciculation, lacrimation; format: functional, organism-based
Rattus norvegicus [10] = test: Number of circlings observed for 30 min at 1 mg/kg orally administered dose in rats; format: functional; settings: route oral
Rattus norvegicus [11] = species on record: Rattus norvegicus; test: Inhibition of circling behavior, percentage of control was reported; (p<0.05); format: functional; design: scale not given: the % may be the effect or the level left
Rattus norvegicus [12] = test: Peripheral cholinergic effects in male wistar rats when administered orally at a dose of 10 mg/Kg.; format: functional, organism-based
Rattus norvegicus [13] = test: Effect of compound on peripheral cholinergic effects in male wistar rats when administered orally at a dose of 10 mg/Kg; fasciculation, salivation; format: functional, organism-based
Rattus norvegicus [14] = test: Effect of compound on peripheral cholinergic effects in male wistar rats when administered orally at a dose of 30 mg/Kg; fasciculation, lacrimation; format: functional, organism-based
Rattus norvegicus [15] = species on record: Rattus norvegicus
Description: Ameliorating effects on diazepam-induced memory impairment of passive avoidance response (no of rats) by peroral administration

[16] = Acute toxicity in rat by peroral administration; format: organism-based; settings: in vivo, po
Rattus norvegicus [17] = species on record: Rattus norvegicus; test: animal or person; settings: read-out: MED
Description: Ameliorating effects on diazepam-induced memory impairment of passive avoidance response (no of rats)

[18] = ED50/MED ratio; format: functional
Rattus norvegicus [19] = species on record: Rattus norvegicus; test: animal or person; settings: po
Description: Tested for effective inhibition by peroral administration

[20] = LD50/MED ratio; format: ADME; settings: read-out: Therapeutic index
Rattus norvegicus [21] = test: Effect of compound on peripheral cholinergic effects in male wistar rats when administered orally at a dose of 3 mg/Kg; salivation; format: functional, organism-based
Rattus norvegicus [22] = test: Effect of compound on peripheral cholinergic effects in male wistar rats when administered orally at a dose of 30 mg/Kg; fasciculation, diarrhea; format: functional, organism-based
Rattus norvegicus [23] = test: Effect of compound on peripheral cholinergic effects in male wistar rats when administered orally at a dose of 30 mg/Kg; […]; format: functional, organism-based

| Structure (SMILES) | IC50 (Acetylcholinesterase) [nM] | Activity (Rattus norvegicus [2]) | No. of circlings (Rattus norvegicus [5]) | Activity (Rattus norvegicus [12]) | also measured |
| --- | --- | --- | --- | --- | --- |
| O=C(CCC1CCN(Cc2cccc(Cl)c2)CC1)c1ccc2c(c1)CCCN2Cc1ccccc1 | 164 | – | – | – | No. of circlings (Rattus norvegicus [1]): 88 |
| CCN1CCCCc2ccc(C(=O)CCC3CCN(Cc4ccccc4)CC3)cc21 | 376 | – | – | – | – |
| O=C(CCC1CCN(Cc2ccccc2F)CC1)c1ccc2c(c1)CCN2 | 43 | No activity | – | – | Activity (Rattus norvegicus [3]): Fasciculation, Salivation; Activity (Rattus norvegicus [4]): Salivation; No. of circlings (Rattus norvegicus [1]): 86.7 |
| CCCN1CCCCc2ccc(C(=O)CCC3CCN(Cc4ccccc4)CC3)cc21 | 1330 | – | – | – | – |
| CN1CCCc2cc(C(=O)CCC3CCN(Cc4cccc(Cl)c4)CC3)ccc21 | 24 | – | 54.5 | – | Activity (Rattus norvegicus [6]): Fasciculation, Lacrimation, Salivation; Activity (Rattus norvegicus [7]): Fasciculation; Activity (Rattus norvegicus [8]): No activity; Activity (Rattus norvegicus [9]): Fasciculation, Lacrimation; No. of circlings (Rattus norvegicus [10]): 76.5; Control (Rattus norvegicus [11]): 58% |
| O=C(CCC1CCN(Cc2ccccc2)CC1)c1ccc2c(c1)N(Cc1ccccc1)CC2 | 853 | – | – | – | – |
| O=C(CCC1CCN(Cc2ccccc2)CC1)c1ccc2c(c1)NCCC2 | – | No activity | 60.5 | Fasciculation | – |
| CCCCCN1CCc2cc(C(=O)CCC3CCN(Cc4ccccc4)CC3)ccc21 | – | No activity | 79 | – | Activity (Rattus norvegicus [13]): Fasciculation, Salivation |
| O=C(CCC1CCN(Cc2cccc(Cl)c2)CC1)c1ccc2c(c1)CCN2 | 59 | – | – | – | No. of circlings (Rattus norvegicus [1]): 94.9 |
| O=C(CCC1CCN(Cc2ccccc2)CC1)c1ccc2c(c1)N(Cc1ccccc1)CCC2 | 1490 | – | – | – | – |
| O=C(CCC1CCN(Cc2ccccc2)CC1)c1ccc2c(c1)CCCCN2 | – | No activity | 94.7 | Fasciculation | Activity (Rattus norvegicus [3]): Fasciculation, Salivation |
| O=C(CCC1CCN(Cc2ccccc2Cl)CC1)c1ccc2c(c1)CCN2 | 76 | – | – | – | No. of circlings (Rattus norvegicus [1]): 67.5 |
| CCCN1CCc2cc(C(=O)CCC3CCN(Cc4ccccc4)CC3)ccc21 | – | – | – | – | No. of circlings (Rattus norvegicus [1]): 81 |
| CN1CCCc2ccc(C(=O)CCC3CCN(Cc4ccccc4)CC3)cc21 | – | No activity | 105.6 | Fasciculation | Activity (Rattus norvegicus [14]): Fasciculation |
| O=C(CCC1CCN(Cc2ccc(F)cc2)CC1)c1ccc2c(c1)CCN2 | 89 | No activity | 107.4 | – | Activity (Rattus norvegicus [14]): Fasciculation, Lacrimation; Activity (Rattus norvegicus [9]): Fasciculation, Lacrimation |
| O=C(CCC1CCN(Cc2cccc([N+](=O)[O-])c2)CC1)c1ccc2c(c1)CCN2 | – | – | – | – | No. of circlings (Rattus norvegicus [1]): 91.1 |
| O=C(CCC1CCN(Cc2ccccc2)CC1)c1ccc2c(c1)NCCCC2 [ZANAPEZIL] | 97.7 | No activity | 75.1 | Fasciculation | Activity (Rattus norvegicus [14]): Fasciculation, Lacrimation; Avoidance time (Rattus norvegicus [15]): 106.6 s and 192.2 s and 193.2 s; LD50 [16]: 334 mg/kg; minimal effective dose (Rattus norvegicus [17]): 1 mg/kg; Central selectivity [18]: 10.2; ED50 (Rattus norvegicus [19]): 10.2 mg/kg; No. of circlings (Rattus norvegicus [10]): 87.5; selectivity ratio [20]: 334; Control (Rattus norvegicus [11]): 69.9% |
| O=C(CCC1CCN(Cc2ccc(F)cc2)CC1)c1ccc2c(c1)NCCCC2 | 393 | – | – | – | – |
| O=C(CCC1CCN(Cc2ccc(Cl)cc2)CC1)c1ccc2c(c1)CCN2 | 6360 | – | – | – | – |
| O=C(CCC1CCN(Cc2ccccc2)CC1)c1ccc2c(c1)NCCCCC2 | – | – | – | – | Activity (Rattus norvegicus [14]): Fasciculation, Lacrimation; Activity (Rattus norvegicus [21]): Salivation; Activity (Rattus norvegicus [8]): No activity; Activity (Rattus norvegicus [9]): Fasciculation, Lacrimation; No. of circlings (Rattus norvegicus [10]): 60.7 |

| Structure (SMILES) | IC50 (Acetylcholinesterase) [nM] | Activity (Rattus norvegicus [2]) | No. of circlings (Rattus norvegicus [5]) | Activity (Rattus norvegicus [12]) | also measured |
| --- | --- | --- | --- | --- | --- |
| O=C(CCC1CCN(Cc2cccc([N+](=O)[O-])c2)CC1)c1ccc2c(c1)NCCCC2 | 390 | – | – | – | – |
| O=C(CCC1CCN(Cc2ccccc2)CC1)c1ccc2c(c1)CCN2 | – | No activity | 52.4 | – | Activity (Rattus norvegicus [14]): Fasciculation, Lacrimation; Activity (Rattus norvegicus [9]): Fasciculation, Lacrimation |
| CCCCN1CCc2cc(C(=O)CCC3CCN(Cc4ccccc4)CC3)ccc21 | – | No activity | 86.4 | Fasciculation | Activity (Rattus norvegicus [22]): Fasciculation, Diarrhea |
| COc1ccccc1CN1CCC(CCC(=O)c2ccc3c(c2)NCCCC3)CC1 | 2620 | – | – | – | – |
| O=C(CCC1CCN(Cc2ccccc2)CC1)c1ccc2c(c1)NCC2 | – | – | – | – | No. of circlings (Rattus norvegicus [10]): 107.9 |
| COc1ccccc1CN1CCC(CCC(=O)c2ccc3c(c2)CCN3)CC1 | 812 | – | – | – | – |
| O=C(CCC1CCN(Cc2cccc(Cl)c2)CC1)c1ccc2c(c1)NCCCC2 | 333 | – | – | – | – |
| O=C(CCC1CCN(Cc2cccc(F)c2)CC1)c1ccc2c(c1)NCCCC2 | – | No activity | 98.4 | Fasciculation | Activity (Rattus norvegicus [14]): Fasciculation, Lacrimation |
| CN1CCCCc2ccc(C(=O)CCC3CCN(Cc4ccccc4)CC3)cc21 | – | No activity | 100.3 | Fasciculation | – |
| CCN1CCc2cc(C(=O)CCC3CCN(Cc4ccccc4)CC3)ccc21 | – | No activity | 89.7 | Fasciculation | Activity (Rattus norvegicus [3]): Fasciculation, Salivation |
| Cc1cccc(CN2CCC(CCC(=O)c3ccc4c(c3)NCCCC4)CC2)c1 | 224 | No activity | – | – | Activity (Rattus norvegicus [23]): Fasciculation; No. of circlings (Rattus norvegicus [1]): 61.4 |
| COc1cccc(CN2CCC(CCC(=O)c3ccc4c(c3)CCN4)CC2)c1 | 2680 | – | – | – | – |
| O=C(CCC1CCN(Cc2cccc(F)c2)CC1)c1ccc2c(c1)CCN2 | – | No activity | 84.3 | Fasciculation | – |
| O=C(CCC1CCN(Cc2cccc(Cl)c2)CC1)c1ccc2c(c1)CCCN2 | 54 | – | 77.4 | Fasciculation | Activity (Rattus norvegicus [14]): Fasciculation, Lacrimation; Activity (Rattus norvegicus [7]): Fasciculation; Activity (Rattus norvegicus [8]): No activity; No. of circlings (Rattus norvegicus [10]): 70.1 |
| CN1CCc2cc(C(=O)CCC3CCN(Cc4ccccc4)CC3)ccc21 | – | No activity | 68.7 | – | Activity (Rattus norvegicus [6]): Fasciculation, Lacrimation, Salivation; Activity (Rattus norvegicus [9]): Fasciculation, Lacrimation; No. of circlings (Rattus norvegicus [1]): 51.9; Control (Rattus norvegicus [11]): 56.4% |
| O=C(CCC1CCN(Cc2ccccc2)CC1)c1ccc2c(c1)CCN2Cc1ccccc1 | – | No activity | 66.8 | Fasciculation | Activity (Rattus norvegicus [14]): Fasciculation, Lacrimation |
| O=C(CCC1CCN(Cc2ccccc2)CC1)c1ccc2c(c1)N(Cc1ccccc1)CCCC2 | 3140 | – | – | – | – |
| Cc1cccc(CN2CCC(CCC(=O)c3ccc4c(c3)CCN4)CC2)c1 | – | No activity | 104 | Fasciculation | – |
| COc1cccc(CN2CCC(CCC(=O)c3ccc4c(c3)NCCCC4)CC2)c1 | 847 | – | – | – | – |
